Results as given in US20230013669A1, “Antibacterial Treatment Using a Cannabinoid and an Active Agent” (priority 2019, published 2023).
Where “and” joins values, the source holds several entries; their conditions need not be identical. Equal values may be shown once.

Test system: Acinetobacter baumannii ATCC 19606 (GN_034)
Assay: Synergy of cannabidiol with cell-wall disrupting agent (CBD MIC in combination, FICI)
Assay type: cell-based
Method: The compounds were stored short term at 4° C.
Analysis was performed using Microsoft Excel.

[1] = CBD with Colistin, Acinetobacter baumannii ATCC 19606
[2] = CBD with MCC_6442, Acinetobacter baumannii ATCC 19606

Question: What does the source list for `C=C(C)C1CCC(C)=CC1c1c(O)cc(CCCCC)cc1O` (centres unmarked) [Cannabidiol, 2-[3-methyl-6-(1-methylethenyl)-2-cyclohexen-1-yl]-5-pentyl-1,3-benzenediol]?
Answer: FICI (CBD with Aztreonam at 8 μg/mL, CBD MIC taken as 256 μg/mL): 0.375; FICI (CBD with Aztreonam at 16 μg/mL, CBD MIC taken as 256 μg/mL): 0.5; FICI range (CBD with Aztreonam, all tested concentrations (Table 74)): 0.25-1.06; FICI (CBD with Cefepime at 0.25 μg/mL, CBD MIC taken as 256 μg/mL): 1.016; FICI (CBD with Cefepime at 0.5 μg/mL, CBD MIC taken as 256 μg/mL): 1.031; FICI (CBD with Cefepime at 1 μg/mL, CBD MIC taken as 256 μg/mL): 1.0625; FICI (CBD with Cefepime at 2 μg/mL, CBD MIC taken as 256 μg/mL): 1.125; FICI (CBD with Cefepime at 4 μg/mL, CBD MIC taken as 256 μg/mL): 0.375; FICI (CBD with Cefepime at 8 μg/mL, CBD MIC taken as 256 μg/mL): 0.5625; FICI range (CBD with Cefepime, Synergy table (Table 81)): 0.38; FICI range (CBD with Cefepime, all tested concentrations (Table 79)): 0.38-1.13; FICI (CBD with Cefotetan at 4 μg/mL, CBD MIC taken as 256 μg/mL): 1.016; FICI (CBD with Cefotetan at 8 μg/mL, CBD MIC taken as 256 μg/mL): 1.031; FICI (CBD with Cefotetan at 16 μg/mL, CBD MIC taken as 256 μg/mL): 1.0625; FICI (CBD with Cefotetan at 32 μg/mL, CBD MIC taken as 256 μg/mL): 1.125; FICI (CBD with Cefotetan at 64 μg/mL, CBD MIC taken as 256 μg/mL): 1.25; FICI (CBD with Cefotetan at 128 μg/mL, CBD MIC taken as 256 μg/mL): 1.5; FICI range (MIC table) (CBD with Cefotetan, Acinetobacter baumannii ATCC 19606): 1.02-1.5; FICI (CBD with Ceftazidime at 0.5 μg/mL, Acinetobacter baumannii ATCC 19606): 1.125; FICI (CBD with Ceftazidime at 1 μg/mL, Acinetobacter baumannii ATCC 19606): 1.25; FICI (CBD with Ceftazidime at 2 μg/mL, Acinetobacter baumannii ATCC 19606): 1.5; FICI (CBD with Ceftazidime at 4 μg/mL, Acinetobacter baumannii ATCC 19606): 1.125; FICI (CBD with Ceftazidime at 8 μg/mL, Acinetobacter baumannii ATCC 19606): 2.0625; FICI (CBD with Ceftazidime at 16 μg/mL, Acinetobacter baumannii ATCC 19606): 4; FICI range (MIC table) (CBD with Ceftazidime, Acinetobacter baumannii ATCC 19606): 1.13-4; FICI (CBD with Cefuroxime at 4 μg/mL, Acinetobacter baumannii ATCC 19606): 1.0625; FICI (CBD with Cefuroxime at 8 μg/mL, Acinetobacter baumannii ATCC 19606): 1.125; FICI (CBD with Cefuroxime at 16 μg/mL, Acinetobacter baumannii ATCC 19606): 0.375; FICI (CBD with Cefuroxime at 32 μg/mL, Acinetobacter baumannii ATCC 19606, listed as CBD): 0.5625 and 0.625; FICI (CBD with Cefuroxime at 64 μg/mL, Acinetobacter baumannii ATCC 19606): 1; FICI (CBD with Cefuroxime at 128 μg/mL, Acinetobacter baumannii ATCC 19606): 2; FICI range (Synergy table) (CBD with Cefuroxime, Acinetobacter baumannii ATCC 19606): 0.38; FICI (CBD with Colistin at 0.031 μg/mL, Acinetobacter baumannii ATCC 19606): 0.04662; FICI (CBD with Colistin at 0.062 μg/mL, Acinetobacter baumannii ATCC 19606): 0.06981; FICI (CBD with Colistin at 0.5 μg/mL, Acinetobacter baumannii ATCC 19606, listed as CBD): 0.501 and 0.5039; FICI (CBD with Colistin at 1 μg/mL, Acinetobacter baumannii ATCC 19606): 1; FICI range (MIC table) [1]: 0.05-1; FICI range (Synergy table) [1]: 0.05-0.5; FICI range (MIC table) [2]: 0.07-1.02; FICI range (Synergy table) [2]: 0.09-1.13; FICI (CBD with MCC_6442 at 0.5 μg/mL, Acinetobacter baumannii ATCC 19606): 1.016; FICI (CBD with MCC_6442 at 1 μg/mL, Acinetobacter baumannii ATCC 19606): 0.09375; FICI (CBD with MCC_6442 at 2 μg/mL, Acinetobacter baumannii ATCC 19606): 0.06641; FICI (CBD with MCC_6442 at 4 μg/mL, Acinetobacter baumannii ATCC 19606): 0.127; FICI range (CBD with Octapeptin C4, Synergy table (Table 85), listed as CBD): 0.28-0.5 and 0.19-0.5; FICI range (CBD with Octapeptin C4, all tested concentrations (Table 83), listed as CBD): 0.28-1.13 and 0.19-1.06; FICI (CBD with Octapeptin C4 at 0.25 μg/mL, CBD MIC taken as 256 μg/mL): 1.031; FICI (CBD with Octapeptin C4 at 0.25 μg/mL, CBD MIC taken as 256 μg/mL, listed as cannabidiol): 1.016; FICI (CBD with Octapeptin C4 at 0.5 μg/mL, CBD MIC taken as 256 μg/mL): 1.0625 and 1.031; FICI (CBD with Octapeptin C4 at 1 μg/mL, CBD MIC taken as 256 μg/mL): 1.125 and 1.0625; FICI (CBD with Octapeptin C4 at 2 μg/mL, CBD MIC taken as 256 μg/mL): 0.2812 and 0.1875; FICI (CBD with Octapeptin C4 at 4 μg/mL, CBD MIC taken as 256 μg/mL): 0.5078 and 0.2578; FICI (CBD with Octapeptin C4 at […], CBD MIC taken as 256 μg/mL): 1.016
